Experimental findings from patent US12064405B2, “Immunosuppressant comprising TSAHC or a pharmaceutically acceptable salts thereof as an active ingredient” (Seoul National University R&DB Foundation, priority 2020, dated 2024) are described below.

For assay [1], the system named is SNU449-TM4SF5-HA cell line. The assay is described as follows: RNA-Seq / mRNA-Seq of inflammatory cytokine and chemokine expression in TM4SF5-expressing hepatic epithelial cells. In kind it is cell-based, human. Conditions: 10 μM TSAHC for 24 hours. How it is done: To confirm whether the TSAHC treatment affects the expression and secretion of inflammatory cytokines and chemokines in TM4SF5 expression-dependent hepatic epithelial cells, RNA-Seq analysis and mRNA-Seq analysis comparing the mRNA expression were performed in SNU449-HA cell line in which the control vector was safely injected into SNU449, SNU449-TM4SF5-HA cell line injected with TM4SF5 expression vector, and SNU449-TM4SF5-HA cell line treated with 10 μM of TSAHC for 24 hours using the liver tissue of Tg^TM4SF5 overexpressing TM4SF5 or Tm4sf5^−/− KO C57BL/6 mice in Macrogen, Inc. (Seoul, Korea).
The experimental procedure for mRNA-Seq analysis included the followings. […] RNA library was constructed through qPCR using an agilent technologies 2100 bioanalyzer according to qPCR quantification protocol guide. Quality control analysis of the raw reads obtained through sequencing was performed. […] Aligned reads were generated after mapping the pre-treated reads to reference genome using HISAT2 program considering splice. Transcript assembly was performed through the String Tie program using paired information of the aligned reads based on the reference. The expression level obtained through the transcript quantification of each sample was calculated as a normalization value considering the transcript length and depth of coverage. […]

Assay [2] relates to Hep3B cell line expressing TM4SF5. The assay is described as follows: qRT-PCR of CCL20 and CXCL10 mRNA in IL-6-treated Hep3B cell line. The format is cell-based, human. Conditions: IL-6 100 ng/ml, TSAHC 0.1 or 0.5 μM for 24 hours. How it is done:
Hep3B cell line expressing TM4SF5 that was not treated with IL-6 or treated at a concentration of 100 ng/ml was treated with or without TSAHC at a concentration of 0.1 or 0.5 μM for 24 hours. Then, qRT-PCR was performed using the cells.
Specifically, to perform qRT-PCR, the cells or tissues were disrupted using Qiazol (Qiagen, USA), to which chloroform was added, and the upper […] layer was separated by centrifugation at 4° C., 12,000×g for 15 minutes. RNA was precipitated by adding isopropanol to the separated […] layer, followed by washing with 70% ethanol. RNA pellet was isolated by centrifugation at 7,500×g for 5 minutes, ethanol was evaporated for 10 minutes, and dissolved in 30 μl of DEPC-water. After removing gDNA from the dissolved RNA, it was reverse transcribed using a reverse transcription kit (Toyobo, Japan) to obtain cDNA. The expression was measured by real-time PCR (Biorad, USA) with the obtained cDNA using 2×Eva green master mix (Labopass, Korea) and 0.4 μM forward/reverse primers. The expression amount was calculated using the modified delta-delta Ct method of Pfaffl.
(In general: Real-time PCR tracks product formation cycle by cycle.)

The next assay relates to cells expressing TM4SF5. Put plainly: Activation of glycolytic function (acidification of extracellular solution, Seahorse). The format is cell-based. How it is done: The cells expressing TM4SF5 were treated with vehicle, a negative control compound (4′-methoxy-4-dihydroxychalcone) or TSAHC. Then, the degree of activation of glycolytic function was measured by measuring the acidification of the extracellular solution due to glycolysis while additionally adding glucose at various concentrations using Seahorse equipment.

The target in the next assay is T1, TM4SF5 and IL6-Rα (Homo sapiens, UniProt O14894).
T1 construct: expressed in transfected cells
T1 sequence (O14894 1-197): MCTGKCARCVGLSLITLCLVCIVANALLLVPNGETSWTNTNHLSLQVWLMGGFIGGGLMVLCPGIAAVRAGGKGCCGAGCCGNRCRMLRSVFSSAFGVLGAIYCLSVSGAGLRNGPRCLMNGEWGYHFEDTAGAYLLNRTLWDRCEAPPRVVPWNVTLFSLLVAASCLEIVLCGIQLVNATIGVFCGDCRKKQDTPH
Put plainly: Binding of TM4SF5 and IL6-Rα (streptavidin-agarose precipitation, Western blotting). The format is cell-based. To be noted: hepatic epithelial cells expressing TM4SF5-Strep; FIG. 10. How it is done: Hepatic epithelial cells were infected with an empty vector (EV) or lentivirus expressing TM4SF5, and TSAHC was not treated (−) or treated (+) thereto. A cell extract was obtained, and TM4SF5-Strep was precipitated using strepavidin-agarose beads, and then Western blotting was performed with the IL-6 receptor, IL-6Rα antibody.
(In general: Immunoblotting shows a protein as a band on a membrane.)

For assay [3], the system named is cell lines expressing TM4SF5. Put plainly: qRT-PCR of M1-type macrophage chemokines/cytokines CCL2, TNF-α, IL-6, IL-1β. In kind it is cell-based. To be noted: cell line expressing TM4SF5, LPS and IFN-γ. The protocol:
Cell lines not expressing TM4SF5 (EV) or cell lines expressing thereof (TM4SF5) were treated (+) or not treated with LPS and IFN-γ, treated (+) or not treated with 2-DG (2-Deoxy-D-glucose) as a drug for inhibiting glycolysis at a given concentration, and additionally treated (+) or not treated with TSAHC (−). Then, the mRNA expression levels of CCL2, TNF-α, IL-6, and IL-1β, the chemokines/cytokines indicating the activation of M1-type macrophages, were confirmed by qRT-PCR.

For assay [4], the system named is mouse model in which liver fibrosis is induced by the treatment of CCl4. The assay is described as follows: CCl4-induced liver damage, inflammation and fibrosis mouse model with TSAHC treatment. In kind it is in vivo. To be noted: CCl4-treated mice, 4 weeks. How it is done: In a mouse animal model that can be accompanied by cell damage and inflammation when liver fibrosis is induced by the treatment of CCl4, the animal groups periodically treated (+) or not treated (−) with TSAHC during the CCl4 treatment were obtained. The body weight during 4 weeks of the treatment and the liver tissue weight after 4 weeks were calculated as a ratio (liver/body weight), or the ALT liver levels were measured from blood samples. The liver tissue was obtained and Tm4sf5 mRNA was measured by qRT-PCR.
In an animal model treated with CCl4 to induce liver fibrosis, the animal groups periodically treated (+) or not treated (−) with TSAHC during the CCl4 treatment were obtained. After 4 weeks of the treatment, the liver tissue was obtained and H&E and Masson's trichrome staining was performed.
In an animal model treated with CCl4 to induce liver fibrosis, the animal groups periodically treated (+) or not treated (−) with TSAHC during the CCl4 treatment were obtained. After 4 weeks of the treatment, the liver tissue was obtained and immunostaining was performed for Ccl20 and Cxcl10.
In a mouse model that can be accompanied by cell damage and inflammation when liver fibrosis is induced by CCl4 treatment, the animal groups periodically treated (+) or not treated (−) with TSAHC during the CCl4 treatment were obtained. After 4 weeks of the treatment, the liver tissue was obtained and immunostaining was performed for F4/80, a macrophage marker.
In a mouse model that can be accompanied by cell damage and inflammation when liver fibrosis is induced by CCl4 treatment, the animal groups periodically treated (+) or not treated (−) with TSAHC during the CCl4 treatment were obtained. After 4 weeks of the treatment, the liver tissue was obtained and immunostaining was performed for α-SMA indicating the activation of hepatic stellate cells.

As to `Cc1ccc(S(=O)(=O)Nc2ccc(C(=O)/C=C/c3ccc(O)cc3)cc2)cc1` [TSAHC, 4′-(p-toluenesulfonylamido)-4-hydroxychalcone], the “expression and secretion of cytokines/chemokines (IL6, IL1β, TNFα, CXCL1, CXCL2, CXCL3, CXCL6, CXCL8, CCL2, CCL5, CCL20, CXCL10, CCR10) according to TM4SF5 expression” value in assay [1] is listed as “suppressed”. In assay [2] (FIG. 4A), the “CCL20 mRNA expression level increased by IL-6” value was “reduced”. In assay [2] (FIG. 4B), the “CXCL10 mRNA expression level increased by IL-6” value was “reduced”. For the same molecule, the “glycolysis of the cells not expressing TM4SF5 (EV)” value in the assay on cells expressing TM4SF5 (EV cell line, FIG. 8B) is on record as “not changed”. Also, the “glycolytic function of cells expressing TM4SF5” value in the assay on cells expressing TM4SF5 (various concentrations of glucose added, FIG. 8C) is “decreased”. Moreover, on TM4SF5 and IL6-Rα, the “binding of TM4SF5 and IL6-Rα” value was “inhibited”. Further, in assay [3] (FIG. 11A), the “CCL2 mRNA expression level” value is listed as “decreased”. Further, the “TNF-α mRNA expression level” value in assay [3] (FIG. 11B) is on record as “decreased”. The “IL-6 mRNA expression level” value in assay [3] (FIG. 11C) is “decreased”. The “IL-1β mRNA expression level” value in assay [3] (FIG. 11D) is recorded as “decreased”. Also, the “Tm4sf5 mRNA expression level in liver tissue” value in assay [4] (FIG. 19A) was “decreased”. In addition, the “liver tissue weight and body weight (ratio liver/body weight)” value in assay [4] (FIG. 19C) is “decreased”. Further, in assay [4] (FIG. 20), the “collagen accumulation (Masson's trichrome staining)” value was “decreased” and the “degree of liver tissue damage / irregular cell composition (H&E staining)” value is “decreased”. Further, in assay [4] (FIG. 21), the “Ccl20 mRNA expression level in liver tissue” value is listed as “decreased” and the “Cxcl10 mRNA expression level in liver tissue” value is given as “decreased”. In assay [4] (FIG. 22B), the “F4/80 mRNA expression in liver tissue” value is given as “decreased”. The “α-SMA mRNA expression in liver tissue” value in assay [4] (FIG. 23B) is listed as “decreased”. In addition, the ALT level entry in assay [4] (blood samples, FIG. 19B) is recorded as “decreased”.
